# Measurements as given in patent EP4800015A1, “AZABICYCLO DERIVATIVE AND PREPARATION METHOD THEREFOR, AND USE” (Zhejiang Hisun Pharmaceutical Co., Ltd., priority 2023, dated 2025).
# Target: T1, recombinant human WRN (Homo sapiens, UniProt Q14191)
# T1 construct: purchased BPS 101264
# Experiment: Inhibition of WRN enzyme activity (ATPase), ADP-Glo Kinase Assay
# Assay type: biochemical
# Settings: WRN protein 5 nM, Flap 0.1 nM, ATP 30 µM; read-out: IC50
# How it was run: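 Recombinant human WRN (5 nM) was preincubated with compound (1000–0.004 nM) for 15 min at room temperature. Flap26 5'-flap DNA (0.1 nM) and 30 µM ATP were then added for 10 min in Tris pH 7.5, MgCl2, NaCl, BSA, Pluronic buffer. ADP was detected by ADP-Glo luminescence, and IC50 was obtained by nonlinear regression versus a 0.1% DMSO control.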
# T1 sequence (Q14191 whole entry): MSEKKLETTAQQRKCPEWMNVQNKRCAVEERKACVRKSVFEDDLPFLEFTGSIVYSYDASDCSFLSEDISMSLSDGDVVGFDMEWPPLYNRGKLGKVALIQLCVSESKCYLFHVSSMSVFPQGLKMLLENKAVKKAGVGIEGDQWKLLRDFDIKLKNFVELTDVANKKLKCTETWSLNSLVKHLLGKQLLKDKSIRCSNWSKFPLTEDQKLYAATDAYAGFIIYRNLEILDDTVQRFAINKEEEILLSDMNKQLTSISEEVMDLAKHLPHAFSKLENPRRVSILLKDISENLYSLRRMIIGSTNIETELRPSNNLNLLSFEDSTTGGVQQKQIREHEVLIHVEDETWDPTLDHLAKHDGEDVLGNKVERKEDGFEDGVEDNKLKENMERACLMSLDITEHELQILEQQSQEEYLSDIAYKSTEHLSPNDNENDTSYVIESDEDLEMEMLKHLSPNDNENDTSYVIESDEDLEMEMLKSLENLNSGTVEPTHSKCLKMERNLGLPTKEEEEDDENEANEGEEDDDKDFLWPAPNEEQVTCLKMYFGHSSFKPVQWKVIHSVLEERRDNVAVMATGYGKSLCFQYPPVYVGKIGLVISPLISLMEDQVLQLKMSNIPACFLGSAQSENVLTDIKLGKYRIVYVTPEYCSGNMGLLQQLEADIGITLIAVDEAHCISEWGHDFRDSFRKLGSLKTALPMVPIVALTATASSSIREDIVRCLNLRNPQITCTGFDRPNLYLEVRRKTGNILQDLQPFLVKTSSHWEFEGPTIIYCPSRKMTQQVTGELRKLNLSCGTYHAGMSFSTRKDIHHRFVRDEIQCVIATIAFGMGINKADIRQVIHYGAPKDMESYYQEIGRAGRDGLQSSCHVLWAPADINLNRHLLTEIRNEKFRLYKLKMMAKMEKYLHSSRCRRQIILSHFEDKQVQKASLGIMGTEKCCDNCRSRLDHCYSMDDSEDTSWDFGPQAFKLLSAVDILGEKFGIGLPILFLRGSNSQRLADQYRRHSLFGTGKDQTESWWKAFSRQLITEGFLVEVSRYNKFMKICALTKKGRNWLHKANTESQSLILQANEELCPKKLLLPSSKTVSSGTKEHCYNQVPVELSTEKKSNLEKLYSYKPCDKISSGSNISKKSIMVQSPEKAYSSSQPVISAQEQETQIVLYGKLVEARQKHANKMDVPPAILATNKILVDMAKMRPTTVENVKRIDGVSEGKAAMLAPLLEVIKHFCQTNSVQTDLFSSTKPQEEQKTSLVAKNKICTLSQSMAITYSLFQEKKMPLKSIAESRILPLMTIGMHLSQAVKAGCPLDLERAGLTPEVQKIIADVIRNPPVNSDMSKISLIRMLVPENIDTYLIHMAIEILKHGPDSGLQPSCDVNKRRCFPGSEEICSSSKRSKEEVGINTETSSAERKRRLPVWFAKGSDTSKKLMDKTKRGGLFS
row,IC50,SMILES
1,1 to 100 nM,"CCc1c(N2CCN(C(=O)c3ncnc(C)c3O)CC2)c(=O)n2nc(C3=CC4C/C(=N/OC)CC4C3)nc2n1CC(=O)Nc1ccc(C(F)(F)F)cc1Cl (centres unmarked) [Example 122, (E)-N-(2-chloro-4-(trifluoromethyl)phenyl)-2-(5-ethyl-6-(4-(5-hydroxy-6-methylpyrimidine-4-carbonyl)piperazin-1-yl)-2-(5-(methoxyimino)-1,3a,4,5,6,6a-hexahydropentalen-2-yl)-7-oxo-[1,2,4]triazolo[1,5-a]pyrimidin-4(7H)-yl)acetamide]"
2,1 to 100 nM,"CCc1c(N2CCN(C(=O)c3ncnc(C)c3O)CC2)c(=O)n2nc(-c3cccc4occc34)nc2n1CC(=O)Nc1ccc(C(F)(F)F)cc1Cl [Example 124, 2-(2-(benzofuran-4-yl)-5-ethyl-6-(4-(5-hydroxy-6-methylpyrimidine-4-carbonyl)piperazin-1-yl)-7-oxo-[1,2,4]triazolo[1,5-a]pyrimidin-4(7H)-yl)-N-(2-chloro-4-(trifluoromethyl)phenyl)acetamide]"
3,1 to 100 nM,"CCc1c(N2CCN(C(=O)c3ncnc(C)c3O)CC2)c(=O)n2nc(-c3ccc4c(c3)C(=O)NC4)nc2n1CC(=O)Nc1ccc(C(F)(F)F)cc1Cl [Example 127, N-(2-chloro-4-(trifluoromethyl)phenyl)-2-(5-ethyl-6-(4-(5-hydroxy-6-methylpyrimidine-4-carbonyl)piperazin-1-yl)-7-oxo-2-(3-oxoisoindolin-5-yl)-[1,2,4]triazolo[1,5-a]pyrimidin-4(7H)-yl)acetamide]"
4,1 to 100 nM,"CCc1c(N2CCN(C(=O)c3ncnc(C)c3O)CC2)c(=O)n2nc(-c3ccc4ccn(C)c4c3)nc2n1CC(=O)Nc1ccc(C(F)(F)F)cc1Cl [Example 128, N-(2-chloro-4-(trifluoromethyl)phenyl)-2-(5-ethyl-6-(4-(5-hydroxy-6-methylpyrimidine-4-carbonyl)piperazin-1-yl)-2-(1-methyl-1H-indol-6-yl)-7-oxo-[1,2,4]triazolo[1,5-a]pyrimidin-4(7H)-yl)ac etamide]"
5,1 to 100 nM,"CCc1c(N2CCN(C(=O)c3ncnc(C)c3O)CC2)c(=O)n2nc(-c3cc4cccnc4s3)nc2n1CC(=O)Nc1ccc(C(F)(F)F)cc1Cl [Example 131, N-(2-chloro-4-(trifluoromethyl)phenyl)-2-(5-ethyl-6-(4-(5-hydroxy-6-methylpyrimidine-4-carbonyl)piperazin-1-yl)-7-oxo-2-(thieno[2,3-b]pyridin-2-yl)-[1,2,4]triazolo[1,5-a]pyrimidin-4(7H)-yl)a cetamide]"
6,1 to 100 nM,"CCc1c(N2CCN(C(=O)c3ncnc(C)c3O)CC2)c(=O)n2nc(-c3ccc4ncnn4c3)nc2n1CC(=O)Nc1ccc(C(F)(F)F)cc1Cl [Example 135, 2-(2-([1,2,4]triazolo[1,5-a]pyridin-6-yl)-5-ethyl-6-(4-(5-hydroxy-6-methylpyrimidine-4-carbonyl)piperazin-1-yl)-7-oxo-[1,2,4]triazolo[1,5-a]pyrimidin-4(7H)-yl)-N-(2-chloro-4-(trifluoromethyl)phenyl)acetamide]"
7,1 to 100 nM,"CCc1c(N2CCN(C(=O)c3ncnc(C)c3O)CC2)c(=O)n2nc(-c3ccn4ccnc4c3)nc2n1CC(=O)Nc1ccc(C(F)(F)F)cc1Cl [Example 136, N-(2-chloro-4-(trifluoromethyl)phenyl)-2-(5-ethyl-6-(4-(5-hydroxy-6-methylpyrimidine-4-carbonyl)piperazin-1-yl)-2-(imidazo[1,2-a]pyridin-7-yl)-7-oxo-[1,2,4]triazolo[1,5-a]pyrimidin-4(7H)-yl)acetamide]"
8,1 to 100 nM,"CCc1c(N2CCN(C(=O)c3ncnc(C)c3O)CC2)c(=O)n2nc(-c3ccn4ncnc4c3)nc2n1CC(=O)Nc1ccc(C(F)(F)F)cc1Cl [Example 137, 2-(2-([1,2,4]triazolo[1,5-a]pyridin-7-yl)-5-ethyl-6-(4-(5-hydroxy-6-methylpyrimidine-4-carbonyl)piperazin-1-yl)-7-oxo-[1,2,4]triazolo[1,5-a]pyrimidin-4(7H)-yl)-N-(2-chloro-4-(trifluoromethyl)phenyl)acetamide]"
